According to paper PMC6576746, “Rational discovery of dual-indication multi-target PDE/Kinase inhibitor for precision anti-cancer therapy using structural systems pharmacology” (PLoS Computational Biology, 2019):

Assays:
Test in all cases: cells
Design in all cases: species or system panel of human cancer cell lines; Eurofins OncoPanel proliferation; nuclei count by high-content fluorescence imaging, 10-point dose response
639-V = details: Homo sapiens, 639-V, 72 h, cell count, 3 days
Summary of the method: (§1)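 Cells in RPMI 1640/10% FBS or special medium received compound the day after seeding, with a time-zero plate; 3-day incubation at 37°C, 5% CO2. Nuclei imaged by fluorescence microscopy; 10 half-log doses from 100 μM, 0.1% DMSO. EC50, IC50, GI50 and activity area (0–10) from curve fits.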

647-V = details: Homo sapiens, 647-V, 72 h, cell count, 3 days
Summary of the method: as §1

A-673 = details: Homo sapiens, A673, 72 h, cell count, 3 days
Summary of the method: as §1

A388 = details: 72 h, cell count, 3 days
Summary of the method: as §1

BFTC-905 = details: Homo sapiens, BFTC-905, 72 h, cell count, 3 days
Summary of the method: as §1

CHP-212 = details: Homo sapiens, CHP-212, 72 h, cell count, 3 days
Summary of the method: as §1

HEL-92-1-7 = details: Homo sapiens, HEL 92.1.7, 72 h, cell count, 3 days
Summary of the method: as §1

HeLa = details: Homo sapiens, HeLa, 72 h, cell count, 3 days
Summary of the method: as §1

Hs 688(A).T = details: 72 h, cell count, 3 days
Summary of the method: as §1

LS123 = details: Homo sapiens, LS-123, 72 h, cell count, 3 days
Summary of the method: as §1

NALM-6 = details: Homo sapiens, NALM-6, 72 h, cell count, 3 days
Summary of the method: as §1

RPMI 6666 = details: Homo sapiens, RPMI-6666, 72 h, cell count, 3 days
Summary of the method: as §1

SNU-423 = details: Homo sapiens, SNU-423, 72 h, cell count, 3 days
Summary of the method: as §1

Thp1 = details: Homo sapiens, THP-1, 72 h, cell count, 3 days
Summary of the method: as §1

[1] = 50% of maximum possible response

C[C@@H]1CC(=O)NN=C1c1ccc(NN=C(C#N)C#N)cc1 [levosimendan]
IC50 (639-V; [1]): 6.97 µM
GI50 (639-V; corrected for time zero): 6.51 µM
EC50 (639-V; curve inflection point): 5.59 µM
IC50 (647-V; [1]): 13.7 µM
GI50 (647-V; corrected for time zero): 8.64 µM
EC50 (647-V; curve inflection point): 13.7 µM
IC50 (A-673; [1]): 57.6 µM
GI50 (A-673; corrected for time zero): 44 µM
EC50 (A-673; curve inflection point): 57.6 µM
IC50 (A388; [1]): 61.1 µM
GI50 (A388; corrected for time zero): 48.4 µM
EC50 (A388; curve inflection point): 61.1 µM
IC50 (BFTC-905; [1]): 13.4 µM
GI50 (BFTC-905; corrected for time zero): 12.4 µM
EC50 (BFTC-905; curve inflection point): 13.4 µM
IC50 (CHP-212; [1]): 84.9 µM
GI50 (CHP-212; corrected for time zero): 49.1 µM
EC50 (CHP-212; curve inflection point): 84.9 µM
IC50 (HEL-92-1-7; [1]): 21.8 µM
GI50 (HEL-92-1-7; corrected for time zero): 17.9 µM
EC50 (HEL-92-1-7; curve inflection point): 21.8 µM
IC50 (HeLa; [1]): 91.2 µM
GI50 (HeLa; corrected for time zero): 75 µM
EC50 (HeLa; curve inflection point): 91.2 µM
IC50 (Hs 688(A).T; [1]): > 100 µM
GI50 (Hs 688(A).T; corrected for time zero): 10.5 µM
EC50 (Hs 688(A).T; curve inflection point): 16 µM
IC50 (LS123; [1]): 53.3 µM
GI50 (LS123; corrected for time zero): 22 µM
EC50 (LS123; curve inflection point): 43.8 µM
IC50 (NALM-6; [1]): 30.8 µM
GI50 (NALM-6; corrected for time zero): 23.4 µM
EC50 (NALM-6; curve inflection point): 30.8 µM
IC50 (RPMI 6666; [1]): 17.2 µM
GI50 (RPMI 6666; corrected for time zero): 11 µM
EC50 (RPMI 6666; curve inflection point): 17.2 µM
IC50 (SNU-423; [1]): 19.2 µM
GI50 (SNU-423; corrected for time zero): 16.5 µM
EC50 (SNU-423; curve inflection point): 14.8 µM
IC50 (Thp1; [1]): 35.5 µM
GI50 (Thp1; corrected for time zero): 23.1 µM
EC50 (Thp1; curve inflection point): 35.5 µM
